According to patent US4387086A, “Organic compounds” (Sandoz Ltd., priority 1979, dated 1983):

test system: antiserum of Example 4; assay: Cross-reactivity of the antiserum: inhibition by 50% of the reaction between antibody (antiserum) and tracer antigen (tritiated thioridazine); format: binding, sheep; details: relative to thioridazine; tracer tritiated thioridazine
Source text: The selectivity of the method can be determined as follows.
The main metabolites of thioridazine having a structure closely related to the parent compound are thioridazine-derivatives oxidized in the 2-methylthio side chain, more specifically the sulfoxide (A) and the sulfone (B), and also demethyl-thioridazine (C). The cross-reactivity of the antiserum was examined by employing a mixture of thioridazine, its sulfoxide A and sulfone B and its demethyl-thioridazine C in the amount required to inhibit the reaction between antibody (antiserum) and tracer antigen (tritiated thioridazine) by 50%.

inhibitory concentration where 50% binding to the antiserum of Example 4 occurs, times higher than that of the parent compound [times]	SMILES
111	CSc1ccc2c(c1)N(CCC1CCCCN1)c1ccccc1S2 (stereo not drawn) [C, demethyl-thioridazine]
67	CN1CCCCC1CCN1c2ccccc2Sc2ccc([S+](C)[O-])cc21 (stereo not drawn) [A]
93	CN1CCCCC1CCN1c2ccccc2Sc2ccc(S(C)(=O)=O)cc21 (stereo not drawn) [B]
